# Experimental data as given in ChEMBL document CHEMBL1140963, “Naphthoquinoidal [1,2,3]-triazole, a new structural moiety active against Trypanosoma cruzi” (Eur J Med Chem, 2008).
# Test system: Trypanosoma cruzi
# Experiment: Antitrypanosomal activity against Trypanosoma cruzi Y trypomastigotes after 1 day
# Assay type: functional, organism-based
# Conditions: 24 h
row,IC50 [µM],SMILES
1,1280,CC(C)=CC1=C(O)C(=O)c2ccccc2C1=O
2,57.8,CC1(C)OC2=C(C(=O)C(=O)c3ccccc32)C1n1cc(C2(O)CCCCC2)nn1 (centres undefined)
3,17.3,CC1(C)OC2=C(C(=O)C(=O)c3ccccc32)C1n1cc(-c2ccccc2)nn1 (centres undefined)
4,152,CC(C)(O)c1cn(C2C3=C(OC2(C)C)c2ccccc2C(=O)C3=O)nn1 (centres undefined)
5,257,CC1(C)OC2=C(C(=O)C(=O)c3ccccc32)C1n1cc(COC2CCCCO2)nn1 (centres undefined)
6,50.2,CC1(C)OC2=C(C(=O)C(=O)c3ccccc32)C1N=[N+]=[N-] (centres undefined)
7,348,CC1(C)OC2=C(C(=O)C(=O)c3ccccc32)C1n1cc(CO)nn1 (centres undefined)
8,536,CN(C)c1ccc(C(=C2C=CC(=[N+](C)C)C=C2)c2ccc(N(C)C)cc2)cc1 [GENTIAN VIOLET]

row,SMILES,IC50 [µM]
1,O=C(Cn1ccnc1[N+](=O)[O-])NCc1ccccc1 [BENZNIDAZOLE],104
